Assay results from patent EP0171362A1, “Aminoalkyl penem compounds” (priority 1984, dated 1986).
In brackets after ≈: the same amount, converted by molar mass.

Assays:
Assay type in all cases: cell-based
[1] = tested on: Streptococcus pyogenes Aronson 1129; assay: In vitro antibiotic activity (MIC); conditions: ARONSON1129
[2] = tested on: Enterobacter cloacae ATCC 13074; assay: In vitro antibiotic activity (MIC); conditions: ATCC13074
[3] = tested on: Staphylococcus aureus 2999i+p+; assay: In vitro antibiotic activity (MIC)
[4] = tested on: Bacteroides fragilis L 01; assay: In vitro antibiotic activity (MIC); conditions: L01
[5] = tested on: Staphylococcus aureus 10 B; assay: In vitro antibiotic activity (MIC)
Escherichia coli DC 2 = assay: In vitro antibiotic activity (MIC); conditions: DC2
Escherichia coli 205 = assay: In vitro antibiotic activity (MIC)
[6] = tested on: Escherichia coli 205 R + TEM; assay: In vitro antibiotic activity (MIC); conditions: read-out: in vitro MIC
Proteus mirabilis 774 = assay: In vitro antibiotic activity (MIC)
[7] = tested on: Klebsiella pneumoniae 327; assay: In vitro antibiotic activity (MIC)
Serratia marcescens 344 = assay: In vitro antibiotic activity (MIC)
[8] = tested on: Pseudomonas aeruginosa K 799/61; assay: In vitro antibiotic activity (MIC); conditions: K799/61, read-out: in vitro MIC
[9] = tested on: Pseudomonas aeruginosa ATCC 12055; assay: In vitro antibiotic activity (MIC); conditions: ATCC12055
[10] = tested on: Streptococcus pneumoniae III/84; assay: In vitro antibiotic activity (MIC)
[11] = tested on: Clostridium perfringens 194 AN; assay: microbe, parasite or virus in culture; conditions: read-out: in vitro MIC
[12] = tested on: Enterobacter cloacae P 99; assay: In vitro antibiotic activity (MIC); conditions: P99, read-out: in vitro MIC
Proteus morganii 2359 = assay: In vitro antibiotic activity (MIC); conditions: Morganella morganii
Escherichia coli UB 1005 = assay: In vitro antibiotic activity (MIC); conditions: UB1005
Description: Ueberraschenderweise weisen die erfindungsgemässen Penem-Verbindungen gegenüber strukturverwandten und vorbekannten Penemen eine überlegene Wirksamkeit auf. Dies wird deutlich beim Vergleich der MIC-Daten (minimum inhibitory concentrations, in vitro gemessen) von (5R,6S)-2-[(2R,S)-2-Amino-but-1-yl)-6-[(lR)-1-hydroxyäthyl]-2-penem-3-carbonsäure (Verbindung A) mit bekannten homologen Penemen, die in Position 2 des Penem-Ringes einen 4-Aminobutyl- bzw. 1-Aminobutyl-Substituenten tragen, nämlich (5R,6S)-2-(4-Aminobutyl)-6-hydroxymethyl-2-penem-3-carbonsäure (Europäische Patentanmeldung Nr. 82113, Verbindung B) und (5R,6S)-2-(1-Aminobutyl)-6-hydroxymethyl-2-penem-3-carbonsäure (Europäische Patentanmeldung Nr. 125 208, Verbindung C). Die Ergebnisse sind in der folgenden Tabelle 1 zusammengefasst.

Escherichia coli 16 = assay: In vitro antibiotic activity (MIC)
Escherichia coli 2018 = assay: In vitro antibiotic activity (MIC)
[13] = tested on: Neisseria meningitidis 1316; assay: In vitro antibiotic activity (MIC)
[14] = tested on: Neisseria gonorrhoeae 1317/4; assay: In vitro antibiotic activity (MIC)
[15] = tested on: Pseudomonas aeruginosa 143738R; assay: In vitro antibiotic activity (MIC)
[16] = tested on: Staphylococcus aureus A 124; assay: In vitro antibiotic activity (MIC); conditions: A124
[17] = tested on: Staphylococcus aureus Wood 46; assay: In vitro antibiotic activity (MIC); conditions: WOOD46
Escherichia coli B-1385 = assay: In vitro antibiotic activity (MIC); conditions: B1385
[18] = tested on: Haemophilus influenzae 24; assay: In vitro antibiotic activity (MIC)

| Structure (SMILES) | MIC [1] | MIC [2] | MIC [3] | MIC [4] | MIC [5] | MIC (Escherichia coli DC 2) | MIC (Escherichia coli 205) | MIC [6] | MIC (Proteus mirabilis 774) | MIC [7] | MIC (Serratia marcescens 344) | MIC [8] | MIC [9] | MIC [10] | MIC [11] | MIC [12] | MIC (Proteus morganii 2359) | MIC (Escherichia coli UB 1005) | MIC (Escherichia coli 16) | MIC (Escherichia coli 2018) | also measured |
| --- | --- | --- | --- | --- | --- | --- | --- | --- | --- | --- | --- | --- | --- | --- | --- | --- | --- | --- | --- | --- | --- |
| NCCCCC1=C(C(=O)O)N2C(=O)[C@H](CO)[C@H]2S1 [Verbindung B, (5R,6S)-2-(4-Aminobutyl)-6-hydroxymethyl-2-penem-3-carbonsäure] | 0.5 µg/mL (≈ 1.84 µM) | 16 µg/mL (≈ 58.8 µM) | 0.5 µg/mL (≈ 1.84 µM) | 0.5 µg/mL (≈ 1.84 µM) | 0.5 µg/mL (≈ 1.84 µM) | 8 µg/mL (≈ 29.4 µM) | 4 µg/mL (≈ 14.7 µM) | 8 µg/mL (≈ 29.4 µM) | 16 µg/mL (≈ 58.8 µM) | 4 µg/mL (≈ 14.7 µM) | 16 µg/mL (≈ 58.8 µM) | 4 µg/mL (≈ 14.7 µM) | 8 µg/mL (≈ 29.4 µM) | 0.5 µg/mL (≈ 1.84 µM) | 4 µg/mL (≈ 14.7 µM) | 4 µg/mL (≈ 14.7 µM) | 16 µg/mL (≈ 58.8 µM) | 4 µg/mL (≈ 14.7 µM) | 4 µg/mL (≈ 14.7 µM) |  |  |
| CCCC(N)C1=C(C(=O)O)N2C(=O)[C@H](CO)[C@H]2S1 (stereo partly drawn) [Verbindung C, (5R,6S)-2-(1-Aminobutyl)-6-hydroxymethyl-2-penem-3-carbonsäure] | 1 µg/mL (≈ 3.67 µM) | > 64 µg/mL | 0.05 µg/mL (≈ 0.184 µM) | 16 µg/mL (≈ 58.8 µM) | 0.05 µg/mL (≈ 0.184 µM) | 64 µg/mL (≈ 235 µM) | 64 µg/mL (≈ 235 µM) | 64 µg/mL (≈ 235 µM) | > 64 µg/mL | 32 µg/mL (≈ 118 µM) | > 64 µg/mL | 64 µg/mL (≈ 235 µM) | > 64 µg/mL | 0.05 µg/mL (≈ 0.184 µM) | 64 µg/mL (≈ 235 µM) | 64 µg/mL (≈ 235 µM) | > 64 µg/mL | 64 µg/mL (≈ 235 µM) | 64 µg/mL (≈ 235 µM) | 32 µg/mL (≈ 118 µM) | MIC [13]: 1 µg/mL (≈ 3.67 µM); MIC [14]: 2 µg/mL (≈ 7.34 µM); MIC [15]: > 64 µg/mL; MIC [16]: 0.5 µg/mL (≈ 1.84 µM); MIC [17]: 0.05 µg/mL (≈ 0.184 µM); MIC (Escherichia coli B-1385): 64 µg/mL (≈ 235 µM); MIC [18]: 32 µg/mL (≈ 118 µM) |
| CCC(N)CC1=C(C(=O)O)N2C(=O)[C@H]([C@@H](C)O)[C@H]2S1 (stereo partly drawn) [Verbindung A, (5R,6S)-2-[(2R,S)-2-Amino-but-1-yl)-6-[(lR)-1-hydroxyäthyl]-2-penem-3-carbonsäure] | 0.05 µg/mL (≈ 0.175 µM) | 2 µg/mL (≈ 6.98 µM) | 0.05 µg/mL (≈ 0.175 µM) | 0.5 µg/mL (≈ 1.75 µM) | 0.02 µg/mL (≈ 0.0698 µM) | 16 µg/mL (≈ 55.9 µM) | 1 µg/mL (≈ 3.49 µM) | 2 µg/mL (≈ 6.98 µM) | 2 µg/mL (≈ 6.98 µM) | 1 µg/mL (≈ 3.49 µM) | 8 µg/mL (≈ 27.9 µM) | 4 µg/mL (≈ 14 µM) | 32 µg/mL (≈ 112 µM) | 0.05 µg/mL (≈ 0.175 µM) | 0.2 µg/mL (≈ 0.698 µM) | 0.5 µg/mL (≈ 1.75 µM) | 8 µg/mL (≈ 27.9 µM) | 2 µg/mL (≈ 6.98 µM) | 1 µg/mL (≈ 3.49 µM) | 0.5 µg/mL (≈ 1.75 µM) | MIC [13]: 1 µg/mL (≈ 3.49 µM); MIC [14]: 0.5 µg/mL (≈ 1.75 µM); MIC [15]: 64 µg/mL (≈ 224 µM); MIC [16]: 0.1 µg/mL (≈ 0.349 µM); MIC [17]: 0.02 µg/mL (≈ 0.0698 µM); MIC (Escherichia coli B-1385): 1 µg/mL (≈ 3.49 µM); MIC [18]: 16 µg/mL (≈ 55.9 µM) |
